Drawing on PubChem BioAssay (NCI), this text covers TGI for 13 compounds.

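Cells were grown in 96-well plates and exposed to each compound for 48 hours at five concentrations; endpoints were interpolated linearly between bracketing concentrations, or set to the highest concentration if not reached. TGI marks complete inhibition of growth.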

Some test systems named below: DU-145 prostate; HCC-2998 colon; HL-60(TB) leukemia; HOP-62 NSCLC; LOX IMVI melanoma; MDA-MB-435; MOLT-4 leukemia; NCI-H460 lung; RPMI-8226 leukemia; U251 CNS.
Assay in all cases: growth of human tumour cells (NCI), 48 h

Regarding `C=C(C)[C@@]1(O)O[C@H]2C[C@@]3(C)OC(=CC3=O)/C(C)=C\[C@@H]3OC(=O)[C@@]1(C)[C@H]32`, the TGI is > 100 µM in the experiment on DU-145 prostate; 35.1 µM in the experiment on HCC-2998 colon; > 47.2 µM with HL-60(TB) leukemia; > 100 µM in the experiment with HOP-62 NSCLC; 29.2 µM with LOX IMVI melanoma; > 100 µM in the experiment with MDA-MB-435. Further, the TGI in the experiment with MOLT-4 leukemia was 40.4 µM; in the experiment with NCI-H460 lung it was > 76.8 µM; in the experiment with RPMI-8226 leukemia, > 58.1 µM; with U251 CNS, 33.6 µM.
On to `COC(=O)c1c2c(cc3c1CC1(Cc4ccccc4C1=O)C3)CCC2` (stereo not given), for which the TGI in the experiment on DU-145 prostate is > 100 µM; in the experiment on HCC-2998 colon, > 100 µM; in the experiment on HL-60(TB) leukemia, 53.1 µM; in the experiment with HOP-62 NSCLC, > 100 µM; with LOX IMVI melanoma it was > 100 µM; in the experiment on MDA-MB-435, 40.3 µM. Besides, the TGI in the experiment with MOLT-4 leukemia is 47.4 µM; in the experiment with NCI-H460 lung it was > 100 µM; in the experiment on RPMI-8226 leukemia, 99.8 µM; with U251 CNS, > 100 µM.
On to `COc1c2cc([N+](=O)[O-])cc1CNC(=O)CN1CCOCCOCCN(CCOCCOCC1)CC(=O)NC2`, for which the TGI in the experiment on DU-145 prostate, in the experiment with HCC-2998 colon, in the experiment on HL-60(TB) leukemia, in the experiment on HOP-62 NSCLC, in the experiment with LOX IMVI melanoma and with MDA-MB-435 was > 100 µM in each case. Also, the TGI in the experiment with MOLT-4 leukemia, in the experiment on NCI-H460 lung, in the experiment on RPMI-8226 leukemia and in the experiment with U251 CNS was > 100 µM each time.
On to `CCOc1cc2c(cc1O)/C(=N\N)C[C@@H]1[C@@H]2CC[C@]2(C)[C@@H](O)CC[C@@H]12`, for which the TGI is > 66.8 µM with DU-145 prostate; 12.8 µM with HCC-2998 colon; > 61.9 µM in the experiment on HL-60(TB) leukemia; > 100 µM with HOP-62 NSCLC; > 41.5 µM in the experiment with LOX IMVI melanoma; 4.95 µM in the experiment on MDA-MB-435. For the same compound, the TGI with MOLT-4 leukemia is > 100 µM; with NCI-H460 lung, > 33.6 µM; with RPMI-8226 leukemia, > 100 µM; with U251 CNS, > 48.9 µM.
`O=C1C(N2CCCC2)=CC(=O)c2c(O)c(N3CCCC3)c(Cl)c(O)c21`: the TGI in the experiment on DU-145 prostate, in the experiment on HCC-2998 colon, in the experiment with HL-60(TB) leukemia, in the experiment on HOP-62 NSCLC, with LOX IMVI melanoma and in the experiment with MDA-MB-435 was > 10 µM in each case. Also, the TGI in the experiment on MOLT-4 leukemia, in the experiment on NCI-H460 lung, in the experiment with RPMI-8226 leukemia and in the experiment on U251 CNS was > 10 µM throughout.
On to `CNC(=O)c1ccccc1-[s+]1c2ccccc2c(=O)n1C` (stereo not given), for which the TGI with DU-145 prostate, in the experiment on HL-60(TB) leukemia, in the experiment on HOP-62 NSCLC, with LOX IMVI melanoma, with MDA-MB-435 and with MOLT-4 leukemia was > 100 µM throughout. Also, the TGI in the experiment on RPMI-8226 leukemia and in the experiment with U251 CNS was > 100 µM each time.
As to `c1ccc(C2=NC3(CCCCC3)N(c3nc4ccccc4s3)N2)nc1`, the TGI in the experiment on DU-145 prostate is > 100 µM; in the experiment on HL-60(TB) leukemia, 80.3 µM; in the experiment on HOP-62 NSCLC, > 100 µM; with LOX IMVI melanoma, 51.6 µM; with MDA-MB-435, 63.6 µM; with MOLT-4 leukemia, > 100 µM. Further, the TGI in the experiment on NCI-H460 lung was 32 µM; in the experiment on RPMI-8226 leukemia it was 52.8 µM; in the experiment on U251 CNS, 49 µM.
Turning to `CC1(C)O[C@H]2Cn3c(c(C#N)c4ccccc43)[C@H]2O1`, the TGI in the experiment with DU-145 prostate, in the experiment with HCC-2998 colon, in the experiment on HL-60(TB) leukemia, with HOP-62 NSCLC, in the experiment on MDA-MB-435 and in the experiment on NCI-H460 lung was > 100 µM each time. Besides, the TGI with RPMI-8226 leukemia and with U251 CNS was > 100 µM each time.
Take `C=CCNC(=S)Nc1sc2c(c1C(=O)OCC)CC(C)CC2` (stereo not given): the TGI with DU-145 prostate is > 100 µM; in the experiment with HCC-2998 colon, 44.1 µM; in the experiment with HL-60(TB) leukemia, 14.7 µM; in the experiment with HOP-62 NSCLC, 65.1 µM; in the experiment with LOX IMVI melanoma, > 100 µM; in the experiment with MDA-MB-435, > 100 µM. In addition, the TGI was 80 µM in the experiment with MOLT-4 leukemia, 47.7 µM in the experiment with NCI-H460 lung, 68.6 µM in the experiment on RPMI-8226 leukemia and > 100 µM with U251 CNS.
As for `O=C(Cc1ccccc1)NCCc1ccc(O)c(O)c1`, the TGI in the experiment with DU-145 prostate is > 100 µM; in the experiment on HCC-2998 colon it was > 100 µM; with HL-60(TB) leukemia it was 51.9 µM; with HOP-62 NSCLC, > 100 µM; in the experiment with LOX IMVI melanoma, > 100 µM; with MDA-MB-435, 33.8 µM. Moreover, the TGI in the experiment with MOLT-4 leukemia, in the experiment on NCI-H460 lung, in the experiment on RPMI-8226 leukemia and in the experiment on U251 CNS was > 100 µM throughout.
Turning to `CC1=NN(c2nc(N)nc(-c3ccccc3S(N)(=O)=O)n2)C(C)(C)C1`, the TGI in the experiment on DU-145 prostate was > 100 µM; with HCC-2998 colon it was > 100 µM; with HL-60(TB) leukemia, 41.2 µM; with HOP-62 NSCLC it was > 100 µM; in the experiment with LOX IMVI melanoma, > 100 µM; in the experiment with MDA-MB-435, > 100 µM. Further, the TGI in the experiment with MOLT-4 leukemia was 79.8 µM; with NCI-H460 lung, > 100 µM; in the experiment on RPMI-8226 leukemia, > 100 µM; with U251 CNS it was > 100 µM.
On to `OCC1OC(c2scc3c(=S)nc[nH]c23)C(O)C1O` (stereo not given), for which the TGI in the experiment on DU-145 prostate was 19.5 µM; in the experiment on HCC-2998 colon, > 97.2 µM; with HL-60(TB) leukemia it was 21.4 µM; with HOP-62 NSCLC, > 100 µM; in the experiment with LOX IMVI melanoma, > 82.5 µM; in the experiment on MDA-MB-435 it was > 100 µM. Also, the TGI is 48.4 µM in the experiment with MOLT-4 leukemia, > 100 µM in the experiment with NCI-H460 lung, 58 µM in the experiment with RPMI-8226 leukemia and > 100 µM in the experiment on U251 CNS.
In the case of `Cc1[nH]c2ncn(/N=C/c3ccccc3O)c(=N)c2c1Cc1ccccc1`, the TGI is > 100 µM with DU-145 prostate; 88.7 µM in the experiment on HCC-2998 colon; 66.8 µM in the experiment with HL-60(TB) leukemia; > 100 µM with HOP-62 NSCLC; > 100 µM with LOX IMVI melanoma; 48.8 µM in the experiment on MDA-MB-435. Besides, the TGI is > 100 µM in the experiment with MOLT-4 leukemia, > 100 µM in the experiment with NCI-H460 lung, > 100 µM with RPMI-8226 leukemia and 41.2 µM in the experiment with U251 CNS.
